Data published in patent US11254652B2, “Crystalline forms of N-(4-(4-(cyclopropymethyl)piperazine-1-carbonyl)phenyl)quinoline-8-sulfonamide” (Agios Pharmaceuticals, Inc., priority 2017, dated 2022).
Like-named read-outs stand apart in the source and are kept apart here.

Tests used:
Type in all cases: physicochemical
[1] = Solubility measurements by gravimetric method in solvents at 23° C. and 50° C.; settings: for solubility at 2 days: thermodynamic from solid
Protocol: Solubility measurements were done by gravimetric method in 20 different solvents at two temperatures (23° C. and 50° C.). About 20-30 mg of Form A, the synthesis of which is described below, was weighed and 0.75 mL solvent was added to form a slurry. The slurry was then stirred for two days at the specified temperature. The vial was centrifuged and the supernatant was collected for solubility measurement through gravimetric method. The saturated supernatant was transferred into pre-weighed 2 mL HPLC vials and weighed again (vial+liquid). The uncapped vial was then left on a 50° C. hot plate to slowly evaporate the solvent overnight. The vials were then left in the oven at 50° C. and under vacuum to remove the residual solvent so that only the dissolved solid remained. The vial was then weighed (vial+solid). From these three weights; vial, vial+liquid and vial+solid; the weight of dissolved solid and the solvent were calculated. Then using solvent density the solubility was calculated as mg solid/mL of solvent.
20-30 mg of Form A was weighed into 2 mL vial and 500 μL MeOH solvent system as outlined in the table was added. If dissolved, more solids were added to form the slurry. The slurries were then stirred for two days. The vials were centrifuged and the supernatant was collected for solubility measurement through gravimetric method by evaporation at 50° C. XRPD analysis was conducted on the solid after filtration of the slurries.
For the sake of comparison, the solubility of Compound 1, i.e., the non-crystalline freebase, was also measured in two solvent systems to see the effect of water.

[2] = Solubility in MeOH:Water by slow heating to dissolve at fixed solvent volume; settings: organic solvent or mixture, thermodynamic from solid
Protocol: Three solvent compositions were used as MeOH:Water (99:1 vol), (98:2) and (95:5). About 25 mg of Form A was weighed into 2 mL vial and 6 volume solvent was added, then slowly heated to dissolve. For experiment with 5% water, an additional test was conducted with 8 vol solvents.

[3] = Stability study of Form A under temperature/RH storage

For `O=C(c1ccc(NS(=O)(=O)c2cccc3cccnc23)cc1)N1CCN(CC2CC2)CC1` [Form A, 1-(cyclopropylmethyl)-4-(4-(quinoline-8-sulfonamido)benzoyl)piperazin-1-ium hemisulfate sesquihydrate], the solubility at 2 days ([1]; MeOH, 23 °C, organic solvent or mixture, MeOH, 23° C., 2 days slurry, read-out: Solubility) was 393000 µg/mL, the solubility at 2 days ([1]; MeOH, 50 °C, organic solvent or mixture, MeOH, 50° C., 2 days slurry, read-out: Solubility) was > 765000 µg/mL and the solubility at 2 days ([1]; MeOH:Water (1:1), 23 °C, aqueous with cosolvent or surfactant or cyclodextrin, MeOH:Water (1:1), 23° C., read-out: Solubility) was 7000 µg/mL. It also gave a solubility at 2 days ([1]; MeOH:Water (1:1), 50 °C, aqueous with cosolvent or surfactant or cyclodextrin, MeOH:Water (1:1), 50° C., read-out: Solubility) of 27000 µg/mL, a solubility at 2 days ([1]; MeOH:water (1:1) system as printed, 0 vol % water, organic solvent or mixture, MeOH:water (1:1) system as printed, 0 vol % water, read-out: room temperature solubility) of 208000 µg/mL and a solubility at 2 days ([1]; MeOH:water (1:1) system as printed, 1% water, organic solvent or mixture, MeOH:water (1:1) system as printed, 1% water, read-out: room temperature solubility) of 118000 µg/mL. For the same compound, the solubility at 2 days ([1]; MeOH:water (1:1) system as printed, 2.5% water, organic solvent or mixture, MeOH:water (1:1) system as printed, 2.5% water, read-out: room temperature solubility) was 39000 µg/mL, the solubility at 2 days ([1]; MeOH:water (1:1) system as printed, 5% water, organic solvent or mixture, MeOH:water (1:1) system as printed, 5% water, read-out: room temperature solubility) was 5000 µg/mL and the solubility at 2 days ([1]; MeOH:water (8:2), 23 °C, organic solvent or mixture, MeOH:water (8:2), 23° C., read-out: Solubility) was 10000 µg/mL. It also gave a solubility at 2 days ([1]; MeOH:water (8:2), 50 °C, organic solvent or mixture, MeOH:water (8:2), 50° C., read-out: Solubility) of 59000 µg/mL, a solubility at 2 days ([1]; MtBE, 23 °C, organic solvent or mixture, MtBE, 23° C., read-out: Solubility) of 1000 µg/mL and a solubility at 2 days ([1]; MtBE, 50 °C, organic solvent or mixture, MtBE, 50° C., read-out: Solubility) of 3000 µg/mL. The solubility at 2 days ([1]; THF, 23 °C, organic solvent or mixture, THF, 23° C., read-out: Solubility) was 2000 µg/mL, the solubility at 2 days ([1]; THF, 50 °C, organic solvent or mixture, THF, 50° C., read-out: Solubility) was 26000 µg/mL and the solubility at 2 days ([1]; THF:water (8:2), 23 °C, organic solvent or mixture, THF:water (8:2), 23° C., read-out: Solubility) was 14000 µg/mL. For the same compound, the solubility at 2 days ([1]; THF:water (8:2), 50 °C, organic solvent or mixture, THF:water (8:2), 50° C., read-out: Solubility) was 77000 µg/mL, the Solubility ([1]; Toluene, 23° C.) was 0 mg solid/mL solvent and the solubility at 2 days ([1]; Toluene:EtOH:water (10:5:0.5), 23 °C, organic solvent or mixture, Toluene:EtOH:water (10:5:0.5), 23° C., read-out: Solubility) was 1000 µg/mL. It also gave a solubility at 2 days ([1]; Toluene:EtOH:water (10:5:0.5), 50 °C, organic solvent or mixture, Toluene:EtOH:water (10:5:0.5), 50° C., read-out: Solubility) of 4000 µg/mL, a solubility at 2 days ([1]; acetone, 23 °C, organic solvent or mixture, Acetone, 23° C., read-out: Solubility) of 1000 µg/mL and a solubility at 2 days ([1]; acetone, 50 °C, organic solvent or mixture, Acetone, 50° C., read-out: Solubility) of 6000 µg/mL. The solubility at 2 days ([1]; acetone:water (8:2), 23 °C, organic solvent or mixture, acetone:water (8:2), 23° C., read-out: Solubility) was 5000 µg/mL, the solubility at 2 days ([1]; acetone:water (8:2), 50 °C, organic solvent or mixture, acetone:water (8:2), 50° C., read-out: Solubility) was 16000 µg/mL and the solubility at 2 days ([1]; acetonitrile, 23 °C, organic solvent or mixture, Acetonitrile, 23° C., read-out: Solubility) was 4000 µg/mL. For the same compound, the solubility at 2 days ([1]; acetonitrile, 50 °C, organic solvent or mixture, Acetonitrile, 50° C., read-out: Solubility) was 6000 µg/mL, the solubility at 2 days ([1]; cyclohexane, 23 °C, organic solvent or mixture, Cyclohexane, 23° C., read-out: Solubility) was 1000 µg/mL and the solubility at 2 days ([1]; cyclohexane, 50 °C, organic solvent or mixture, Cyclohexane, 50° C., read-out: Solubility) was 1000 µg/mL. For the same compound, the “decrease of solubility on adding 5 vol % water” value ([1]; room temperature, 0 vs 5 vol % water) was 42 fold, the solubility at 2 days ([1]; toluene, 50 °C, organic solvent or mixture, Toluene, 50° C., read-out: Solubility) was 2000 µg/mL and the Solubility ([2]; MeOH:Water (95:5), 6 vol, temperature when dissolution 60 ° C.) was 167000 µg/mL. The Solubility ([2]; MeOH:Water (95:5), 8 vol, temperature when dissolution 50 ° C.) was 125000 µg/mL, the Solubility ([2]; MeOH:Water (98:2), 6 vol, temperature when dissolution 35 ° C.) was 167000 µg/mL and the Solubility ([2]; MeOH:Water (99:1), 6 vol, temperature when dissolution 23 ° C.) was > 167000 µg/mL. The “degradation in stability study” value ([3]; one month under 40±2° C./75±5% RH) was “No degradation”, the “degradation in stability study” value ([3]; three months at 30±2° C./65±5% RH) was “No degradation” and the “degradation in stability study” value ([3]; three months under 25±2° C./60±5% RH) was “No degradation”. The “degradation in stability study” value ([3]; three months under 40±2° C./75% RH) was “No degradation” and the “degradation in stability study” value ([3]; twelve months under 25±2° C./60±5% RH) was “No degradation”.
